Literature values, collected in patent US6777002B1, “Process for microencapsulation of water soluble substances” (Debio Recherche Pharmaceutique S.A., priority 1999, dated 2004).

Details: in water at 20-25° C.

| SMILES | solubility in water |
| --- | --- |
| ClCCl [dichloromethane] | 1.32 % (by weight) |
| CCOC(C)=O [ethyl acetate] | 8.70 % (by weight) |
